Measured values reported in patent US5344831A, “Diazabicyclo derivatives” (Nisshin Flour Milling Co., Ltd., priority 1992, dated 1994).

What was measured:
[1] = tested on: 5-HT3 receptors; experiment: antagonism of the von Bezold-Jarisch reflex (bradycardia) induced by 5-HT in the anaesthetised rat; type: in vivo; conditions: 5-HT 30 μg/kg given 5 min later, tested as hydrochloride salts
Description: Temporary bradycardia is induced by administration of 5-HT (serotonin) to anaesthetised rats via jugular vein (yon Bezold Jarisch Reflex) (A. S. Paintal, Physiol. Rev., 53, 159-210 (1973 ) ).
The compounds of the present invention were evaluated for antagonism of the yon Bezold-Jarisch reflex induced by 5-HT in the anaesthetised rat according to the following method.
Rats were anaesthetised with urethane (1 g/kg, intraperitoneally ) and blood pressure and heart rate recorded from left femoral artery. Percent inhibition was calculated from bradycardia induced by 5-HT (30 μg/kg ) given 5 minutes following intrajugular administration of a compound of the invent ion, taking the bradycardia induced by the intrajugular administration of 5-HT. The compounds of the present invention were tested in the form of their hydrochloride salts.

[2] = tested on: nausea and vomiting; conditions: intravenous administration at high dose; Gralla et al, N. Engl. J. Med. 305, 905-909 (1981); cited from earlier work

| SMILES | Percent Inhibition ([1]; 0.1 μg/kg i.v.) [%] | Percent Inhibition ([1]; 1.0 μg/kg i.v.) [%] | Percent Inhibition ([1]; 10 μg/kg i.v.) [%] | Percent Inhibition ([1]; 0.01 μg/kg i.v.) [%] | prevention of nausea and vomiting [2] |
| --- | --- | --- | --- | --- | --- |
| CN1C[C@H]2C[C@@H](NC(=O)c3nn(Cc4ccccc4[N+](=O)[O-])c4ccccc34)C[C@@H](C1)N2C [Example 14, endo-3,9-Dimethyl-3,9-diazabicyclo[3.3.1]non-7-yl 1-(2-nitrobenzyl) indazole-3-carboxamide] | 18 | 97 |  |  |  |
| CN1C[C@H]2C[C@@H](NC(=O)c3nn(Cc4ccccn4)c4ccccc34)C[C@@H](C1)N2C [Example 15, endo-3,9-Dimethyl-3,9-diazabicyclo[3.3.1]non-7-yl 1-(2-pyridylmethyl) indazole-3-carboxamide] | 47 |  |  |  |  |
| COC(=O)Cn1nc(C(=O)N[C@@H]2C[C@@H]3CN(C)C[C@H](C2)N3C)c2ccccc21 [Example 16, endo-3,9-Dimethyl-3,9-diazabicyclo[3.3.1]non-7-yl 1-methoxycarbonylmethylindazole-3-carboxamide] | 34 |  | 88 |  |  |
| CCOCCn1nc(C(=O)N[C@@H]2C[C@@H]3CN(C)C[C@H](C2)N3C)c2ccccc21 [Example 17, endo-3,9-Dimethyl-3,9-diazabicyclo[3.3.1]non-7-yl 1-ethoxyethylindazole-3-carboxamide] | 53 |  |  | 33 |  |
| CC(C)COC(=O)n1nc(C(=O)N[C@@H]2C[C@@H]3CN(C)C[C@H](C2)N3C)c2ccccc21 [Example 18, endo-3,9-Dimethyl-3,9-diazabicyclo[3.3.1]non-7-yl 1-isobutoxycarbonylindazole-3-carboxamide] | 23 | 53 |  |  |  |
| CC(O)Cn1nc(C(=O)N[C@@H]2C[C@@H]3CN(C)C[C@H](C2)N3C)c2ccccc21 (stereo partly drawn) [Example 19, endo-3,9-Dimethyl-3,9-diazabicyclo[3.3.1]non-7-yl 1-(2hydroxypropyl) indazole-3-carboxamide] | 59 |  |  | 40 |  |
| CN1C[C@H]2C[C@@H](NC(=O)c3nn(Cc4ccc(N)cc4)c4ccccc34)C[C@@H](C1)N2C [Example 20, endo-3,9-Dimethyl-3,9-diazabicyclo[3.3.1]non-7-yl 1-(4aminobenzyl) indazole-3-carboxamide] | 73 |  |  | 51 |  |
| CN1C[C@H]2C[C@@H](NC(=O)c3nn(Cc4nc(N)nc(N)n4)c4ccccc34)C[C@@H](C1)N2C [Example 21] | 38 | 85 |  | 21 |  |
| CN1[C@@H]2C[C@@H](NC(=O)c3n[nH]c4ccccc34)C[C@H]1CN(Cc1ccccc1)C2 [Example 22, endo-3-Benzyl-9-methyl-3,9-diazabicyclo[3.3.1]non-7-yl 1H-indazole-3-carboxamide] | 48 | 87 |  |  |  |
| CN1[C@@H]2CNC[C@H]1C[C@@H](NC(=O)c1n[nH]c3ccccc13)C2 [Example 23, endo-9-Methyl-3,9-diazabicyclo[3.3.1]non-7-yl 1H-indazole-3-carboxamide] | 28 | 82 |  |  |  |
| CN1C[C@H]2C[C@@H](NC(=O)c3n[nH]c4ccccc34)C[C@@H](C1)N2Cc1ccccc1 [Example 24, endo-9-Benzyl-3-methyl-3,9-diazabicyclo[3.3.1]non-7-yl 1H-indazole-3-carboxamide] | 35 |  |  |  |  |
| CN1C[C@H]2C[C@@H](NC(=O)c3n[nH]c4ccccc34)C[C@@H](C1)N2 [Example 25, endo-3-Methyl-3,9-diazabicyclo[3.3.1]non-7-yl 1H-indazole-3-carboxamide] | 21 |  |  |  |  |
| C=CCN1C[C@H]2C[C@@H](NC(=O)c3n[nH]c4ccccc34)C[C@@H](C1)N2C [Example 26, endo-3-Allyl-9-methyl-3,9-diazabicyclo[3.3.1]non-7-yl 1H-indazole-3-carboxamide] | 38 |  |  |  |  |
| CN1[C@@H]2C[C@@H](NC(=O)c3n[nH]c4ccccc34)C[C@H]1CN(Cc1ccc(F)cc1)C2 [Example 27, endo-3-(4-Fluorobenzyl)-9-methyl-3,9-diazabicyclo[3.3.1]non-7-yl 1H-indazole-3-carboxamide] | 75 | 98 |  |  |  |
| CC(=O)N1C[C@H]2C[C@@H](NC(=O)c3n[nH]c4ccccc34)C[C@@H](C1)N2C [Example 28, endo-3-Acetyl-9-methyl-3,9-diazabicyclo[3.3.1]non-7-yl 1H-indazola-3-carboxamide] | 23 | 71 |  |  |  |
| CC(C)CN1C[C@H]2C[C@@H](NC(=O)c3n[nH]c4ccccc34)C[C@@H](C1)N2C [Example 29, endo-3-Isobutyl-9-methyl-3,9-diazabicyclo[3.3.1]non-7-yl 1H-indazole-3-carboxamide] | 81 |  |  | 27 |  |
| CCOCCN1C[C@H]2C[C@@H](NC(=O)c3n[nH]c4ccccc34)C[C@@H](C1)N2C [Example 30, endo-3-(2-Ethoxyethyl)-9-methyl-3,9-diazabicyclo[3.3.1]non-7-yl 1H-indazole-3-carboxamide] | 52 | 100 |  |  |  |
| CCN(CC)CCNC(=O)c1cc(Cl)c(N)cc1OC [metoclopramide] |  |  |  |  | effectively prevented |
